Results taken from PubChem BioAssay (NCI).
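Compound exposure: 48 hours, 5 concentrations, 96-well plates. GI50 = concentration required for 50% inhibition of growth. TGI: concentration producing complete growth inhibition.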

Key:
Test in all cases: NCI anticancer screen, dose series, 48 h
[1] = system: NCI-H23 lung
[2] = system: SNB-75 CNS
[3] = system: IGROV1 ovarian
[4] = system: OVCAR-8 ovarian
[5] = system: COLO 205 colon
[6] = system: MOLT-4 leukemia
[7] = system: NCI-H522 lung
[8] = system: SK-MEL-5 melanoma
[9] = system: MDA-MB-231 breast
[10] = system: DU-145 prostate
[11] = system: HOP-92 NSCLC
[12] = system: EKVX NSCLC
[13] = system: SF-295 CNS
[14] = system: NCI-H460 lung
[15] = system: LOX IMVI melanoma
[16] = system: CCRF-CEM leukemia
[17] = system: CAKI-1 renal
[18] = system: HL-60(TB) leukemia
[19] = system: KM12 colon
[20] = system: MDA-MB-435
[21] = system: HOP-62 NSCLC
[22] = system: SF-539 CNS
[23] = system: SNB-19 CNS
[24] = system: HCT-15 colon
[25] = system: HCT-116 colon
[26] = system: 786-0 renal
[27] = system: HT29 colon
[28] = system: RPMI-8226 leukemia
[29] = system: PC-3 prostate
[30] = system: NCI-H226 lung
[31] = system: BT-549 breast
[32] = system: SN12C renal
[33] = system: K-562 leukemia
[34] = system: SK-MEL-2 melanoma
[35] = system: M14 melanoma
[36] = system: A498 renal
[37] = system: ACHN renal
[38] = system: RXF 393 renal
[39] = system: HS 578T breast
[40] = system: OVCAR-3 ovarian
[41] = system: OVCAR-4 ovarian
[42] = system: U251 CNS
[43] = system: SR leukemia
[44] = system: SK-OV-3 ovarian
[45] = system: UACC-62 melanoma
[46] = system: OVCAR-5 ovarian
[47] = system: T-47D breast
[48] = system: HCC-2998 colon
[49] = system: UO-31 renal
[50] = system: SF-268 CNS
[51] = system: SW-620 colon
[52] = system: MCF7 breast
[53] = system: SK-MEL-28 melanoma
[54] = system: NCI/ADR-RES ovarian
[55] = system: A549 NSCLC
[56] = system: MALME-3M melanoma
[57] = system: TK-10 renal
[58] = system: UACC-257 melanoma

Work on `O=C1/C(=C/c2ccc(O)cc2)COc2ccc(-c3ccccc3)cc21` yielded a GI50 [1] of 12.4 µM, a TGI [1] of 29.6 µM and a GI50 [2] of 5.17 µM. It also gave a TGI [2] of 15.5 µM, a GI50 [3] of 6.12 µM and a TGI [3] of 20.8 µM. The GI50 [4] was 9.27 µM, the TGI [4] was 23.1 µM and the GI50 [5] was 10.6 µM. It also gave a TGI [5] of 33.9 µM, a GI50 [6] of 1.62 µM and a TGI [6] of over 32.5 µM. The GI50 [7] was 2.93 µM, the TGI [7] was 16.4 µM and the GI50 [8] was 8.67 µM. For the same molecule, the TGI [8] was 22.9 µM, the GI50 [9] was 8.25 µM and the TGI [9] was 27.3 µM. The GI50 [10] was 4.09 µM, the TGI [10] was 14.6 µM and the GI50 [11] was 7.63 µM. For the same molecule, the TGI [11] was 31 µM, the GI50 [12] was 13.4 µM and the TGI [12] was 32.1 µM. The GI50 [13] was 6.8 µM, the TGI [13] was 24.7 µM and the GI50 [14] was 3.73 µM. It also gave a TGI [14] of 15.8 µM, a GI50 [15] of 3.54 µM and a TGI [15] of 13.3 µM. For the same molecule, the GI50 [16] was 0.237 µM, the GI50 [17] was 6.9 µM and the TGI [17] was 20.2 µM. For the same molecule, the GI50 [18] was 0.465 µM, the TGI [18] was over 38.2 µM and the GI50 [19] was 2.28 µM. The TGI [19] was 7.54 µM, the GI50 [20] was 4.23 µM and the TGI [20] was 35.8 µM. For the same molecule, the GI50 [21] was 19.3 µM, the TGI [21] was 36.4 µM and the GI50 [22] was 13.9 µM. For the same molecule, the TGI [22] was 27 µM, the GI50 [23] was 15.7 µM and the TGI [23] was 37.3 µM. The GI50 [24] was 2.89 µM, the TGI [24] was 12.4 µM and the GI50 [25] was 3.38 µM. It also gave a TGI [25] of 14.4 µM, a GI50 [26] of 12 µM and a TGI [26] of 32.3 µM. For the same molecule, the GI50 [27] was 3.35 µM, the TGI [27] was 11.5 µM and the GI50 [28] was 1.4 µM. The TGI [28] was 7.68 µM, the GI50 [29] was 5.09 µM and the TGI [29] was over 63.9 µM. For the same molecule, the GI50 [30] was 16.1 µM, the TGI [30] was 39.2 µM and the GI50 [31] was 2.64 µM. The TGI [31] was 13 µM, the GI50 [32] was 7.29 µM and the TGI [32] was 24.8 µM. For the same molecule, the GI50 [33] was 2.57 µM, the TGI [33] was over 39.3 µM and the GI50 [34] was 16.8 µM. For the same molecule, the TGI [34] was 39 µM, the GI50 [35] was 12.2 µM and the TGI [35] was 39.1 µM. For the same molecule, the GI50 [36] was 11.5 µM, the TGI [36] was 23.8 µM and the GI50 [37] was 12.3 µM. It also gave a TGI [37] of 25.1 µM, a GI50 [38] of 3.35 µM and a TGI [38] of 8.25 µM. The GI50 [39] was 3.79 µM, the TGI [39] was 24.3 µM and the GI50 [40] was 2.49 µM. For the same molecule, the TGI [40] was 8.14 µM, the GI50 [41] was 14.1 µM and the TGI [41] was 31 µM. It also gave a GI50 [42] of 5.1 µM, a TGI [42] of 17.8 µM and a GI50 [43] of 1.63 µM. The TGI [43] was over 28.4 µM, the GI50 [44] was 21.4 µM and the TGI [44] was 46.1 µM. It also gave a GI50 [45] of 12.7 µM, a TGI [45] of 25.6 µM and a GI50 [46] of 17.8 µM. The TGI [46] was 33.8 µM, the GI50 [47] was 3.76 µM and the TGI [47] was 25.6 µM. The GI50 [48] was 4.08 µM, the TGI [48] was 11.2 µM and the GI50 [49] was 4.64 µM. For the same molecule, the TGI [49] was 23.4 µM, the GI50 [50] was 5.49 µM and the TGI [50] was 22.8 µM. The GI50 [51] was 2.8 µM, the TGI [51] was 8.06 µM and the GI50 [52] was 2.8 µM. For the same molecule, the TGI [52] was 12.4 µM, the GI50 [53] was 10.1 µM and the TGI [53] was 24.5 µM. For the same molecule, the GI50 [54] was 10.9 µM, the TGI [54] was 53.9 µM and the GI50 [55] was 13.2 µM. It also gave a TGI [55] of 49.6 µM, a GI50 [56] of 8.38 µM and a TGI [56] of 30.6 µM. The GI50 [57] was 2.98 µM and the TGI [57] was 11.9 µM.

Work on `CC1OC2CC(=O)OC2C2=C1C(=O)c1c(O)c3c(c(O)c1C2=O)C1CC(O)C3(O)C(C)O1` (centres undefined) yielded a GI50 [1] of 0.414 µM, a TGI [1] of 1.55 µM and a GI50 [2] of 1.59 µM. For the same molecule, the TGI [2] was 3.64 µM, the GI50 [3] was 0.329 µM and the TGI [3] was 1.7 µM. It also gave a GI50 [4] of 0.271 µM, a TGI [4] of 3.5 µM and a GI50 [5] of 0.186 µM. For the same molecule, the TGI [5] was 0.453 µM, the GI50 [6] was 0.244 µM and the TGI [6] was 0.64 µM. It also gave a GI50 [7] of 0.195 µM, a TGI [7] of 0.447 µM and a GI50 [8] of 1.23 µM. The TGI [8] was 2.5 µM, the GI50 [9] was 0.25 µM and the TGI [9] was 0.712 µM. For the same molecule, the GI50 [10] was 1.38 µM, the TGI [10] was 2.69 µM and the GI50 [11] was 1.06 µM. It also gave a TGI [11] of 3.56 µM, a GI50 [12] of 0.534 µM and a TGI [12] of 1.8 µM. It also gave a GI50 [13] of 0.975 µM, a TGI [13] of 3.29 µM and a GI50 [14] of 0.784 µM. For the same molecule, the TGI [14] was 3.14 µM, the GI50 [15] was 0.104 µM and the TGI [15] was 0.476 µM. It also gave a GI50 [16] of 0.26 µM, a TGI [16] of 13.6 µM and a GI50 [17] of 0.224 µM. The TGI [17] was 0.613 µM, the GI50 [18] was 0.234 µM and the TGI [18] was 1.06 µM. For the same molecule, the GI50 [19] was 0.664 µM, the TGI [19] was 2.02 µM and the GI50 [20] was 0.264 µM. It also gave a TGI [20] of 0.591 µM, a GI50 [21] of 0.826 µM and a TGI [21] of 2.8 µM. It also gave a GI50 [22] of 0.458 µM, a TGI [22] of 1.37 µM and a GI50 [23] of 1.94 µM. The TGI [23] was 5.84 µM, the GI50 [24] was 0.367 µM and the TGI [24] was 3.69 µM. It also gave a GI50 [25] of 0.0452 µM, a TGI [25] of 0.252 µM and a GI50 [26] of 0.635 µM. For the same molecule, the TGI [26] was 1.78 µM, the GI50 [27] was 0.229 µM and the TGI [27] was 1.14 µM. For the same molecule, the GI50 [28] was 0.267 µM, the TGI [28] was 0.876 µM and the GI50 [58] was 0.212 µM. The TGI [58] was 0.525 µM, the GI50 [29] was 0.533 µM and the TGI [29] was 6.47 µM. The GI50 [30] was 0.974 µM, the TGI [30] was 3.18 µM and the GI50 [31] was 1.1 µM. It also gave a TGI [31] of 2.32 µM, a GI50 [32] of 0.211 µM and a TGI [32] of 0.539 µM. The GI50 [33] was 0.336 µM, the TGI [33] was 11.5 µM and the GI50 [34] was 0.701 µM. The TGI [34] was 2.26 µM, the GI50 [35] was 0.242 µM and the TGI [35] was 0.662 µM. For the same molecule, the GI50 [36] was 1.65 µM, the TGI [36] was 3.42 µM and the GI50 [37] was 0.555 µM. It also gave a TGI [37] of 10.4 µM, a GI50 [38] of 1.2 µM and a TGI [38] of 2.51 µM. It also gave a GI50 [39] of 0.429 µM, a TGI [39] of 2.92 µM and a GI50 [40] of 0.207 µM. The TGI [40] was 0.629 µM, the GI50 [41] was 0.381 µM and the TGI [41] was 1.23 µM. For the same molecule, the GI50 [42] was 0.296 µM, the TGI [42] was 1.07 µM and the GI50 [43] was 0.344 µM. For the same molecule, the TGI [43] was 5.86 µM, the GI50 [44] was 3.24 µM and the TGI [44] was 11.1 µM. It also gave a GI50 [45] of 0.734 µM, a TGI [45] of 2.13 µM and a GI50 [46] of 0.292 µM. The TGI [46] was 0.879 µM, the GI50 [47] was 0.336 µM and the TGI [47] was 1.55 µM. It also gave a GI50 [48] of 0.442 µM, a TGI [48] of 1.67 µM and a GI50 [49] of 0.3 µM. For the same molecule, the TGI [49] was 1.53 µM, the GI50 [50] was 0.303 µM and the TGI [50] was 1.15 µM. The GI50 [51] was 0.168 µM, the TGI [51] was 0.774 µM and the GI50 [52] was 0.126 µM. The TGI [52] was 0.366 µM, the GI50 [53] was 1.21 µM and the TGI [53] was 2.74 µM. The GI50 [54] was 0.273 µM, the TGI [54] was 0.917 µM and the GI50 [55] was 0.869 µM. For the same molecule, the TGI [55] was 7.74 µM, the GI50 [56] was 0.142 µM and the TGI [56] was 0.385 µM. It also gave a GI50 [57] of 0.302 µM and a TGI [57] of 1.12 µM.
